Read-outs that look alike come from different tables or passages of the source.
Tests used:
K562-CD19 target cells = assay: Cytotoxicity of IVT-mRNA electroporated T cells encoding DARIC components against K562-CD19/K562-CD20 mixture (flow cytometry); type: cell-based, human
Description: Recombinant T cells expressing the two DARIC components were incubated with K562 target cells (a human myeloid leukemia cell line), which were modified to express either CD19 or CD20 antigen, to examine target cell lysis. Briefly, T cells were co-incubated with a 50:50 mixture of K562-CD19 and K562-CD20 target cell lines, at 3:1 or 10:1 T cell to target cell ratios. […] The relative percentage of each of the target cell lines was monitored by flow cytometry staining for the CD19 and CD20 antigens to evaluate cell lysis (see FIG. 3).
Four samples of primary human T cells were prepared by electroporation with IVT-mRNA encoding (i) an extensively validated single-chain chimeric antigen receptor (CAR) (CD19-CAR, SEQ ID NO.:14, positive control); (ii) the DARIC signaling component only (DSC, SEQ ID NO.:16, negative control); iii) the DARIC binding component only (DBC-CD19, SEQ ID NO.:2, negative control); and (iv) both DARIC binding and signaling components (DSC, SEQ ID NO.:16 plus DBC-CD19, SEQ ID NO.:2). The relative percentages of each of the target cell lines were monitored by flow cytometry staining for the CD19 and CD20 antigens (FIG. 3A).
The percent specific cytotoxicity was calculated for each condition as the percentage change relative the input K562-CD19:K562-CD20 ratio.

[1] = system: CD19 expressing K562 target cells; assay: Cytokine secretion of T cells encoding DARIC components co-incubated with K562 target cells (Cytokine Bead Array); type: cell-based, human
Description: Recombinant T cells expressing the two DARIC components were incubated with K562 target cells (a human myeloid leukemia cell line), which were modified to express either CD19 or CD20 antigen, to examine cytokine expression. […] Supernatants were isolated for analysis of cytokine production (see FIG. 4).
Two samples of primary human T cells were isolated, expanded, and then prepared by electroporation with IVT-mRNA encoding either (i) the validated single-chain CAR (CD19-CAR, SEQ ID NO.:[…], positive control); or (ii) both DARIC binding and signaling components (DSC, SEQ ID NO.:16 plus DBC-CD19, SEQ ID NO.:2). […] The supernatants were then collected and assayed for analyte concentrations using cytokine capture antibody-labeled beads (Becton Dickenson Cytokine Bead Array, human Th1/Th2 kit). Comparison with recombinant protein standards enabled calculation of absolute concentrations of each of the six cytokines encompassed by the bead array.

K562-CD19 cells = settings: for cytotoxicity responses on titration of bridging factor: DARIC expressing T cells, broad range of drug concentrations
Description: The transduced T cells were then co-incubated with about a 50:50 mixture of the K562 target cells expressing either CD19 (K562-CD19) or CD20 (K562-CD20) to evaluate antigen-specific cytotoxicity. […] The DARIC antigen binding component includes a CD19 antigen binding scFv domain and a FKBP12 multimerization domain, which was linked to a mCherry fluorescent protein.
A series of additional DARIC molecules, in which the antigen binding component was maintained on the T cell surface rather than released into the extracellular space, were tested (see, e.g., FIG. 1I). Several protein regions and transmembrane domains were used to anchor the binding domain to the T cell surface (SEQ ID NOS.:50, 53, 56, 59), each altering the spacing or steric parameters governing multimerization of the DARIC binding and signaling components.
Deactivation of the DARIC system by the addition of a pharmacological agent that competes for binding to one of the multimerization domains was tested. Primary human T cells expressing either a traditional CD19 targeting CAR or primary human T cells expressing the CD19 targeting DARIC components (SEQ ID NO.:66) were co-incubated with 50:50 mixtures of K562-CD19 and K562-CD20 cells.

K562-CD123 target cells = assay: Antigen-specific cytotoxicity of lentivirus-transduced T cells against 50:50 K562-CD19/K562-CD123; type: cell-based, human; settings: sample containing rapamycin; T:K562 5:1
Description: The DARIC system was extended to an additional model antigen to show the broad applicability of artificial cells expressing drug regulated multipartite receptors templated herein. K562 target cell lines were generated to express the CD123 antigen by sub-cloning this antigen into a lentiviral vector comprising a puromycin selection cassette (SEQ ID NO.:74), lentiviral particles were produced, and K562 cells were infected and selected with puromycin.

[2] = T cells expressing DARIC components (DSC plus DBC-CD19), 500 nM AP21967, 1:1

With `CO[C@H]1[C@@H](O)[C@H](C)C[C@H](C)/C=C/C=C/C=C(\C)[C@@H](c2c[nH]c3c(C)cccc23)C[C@@H]2CC[C@@H](C)[C@@](O)(O2)C(=O)C(=O)N2CCCC[C@H]2C(=O)O[C@H]([C@H](C)C[C@@H]2CC[C@@H](O)[C@H](OC)C2)C[C@H](O)[C@H](C)/C=C(\C)[C@H]1O` [AP21967, C-16-(S)-7-methylindolerapamycin] the specific cytotoxicity (K562-CD19 target cells; T cells expressing both DARIC components (DSC plus DBC-CD19), 500 nM AP21967) was “substantial specific cytoxicity”, the IFNγ production [1, 2] was “equivalent, or superior, to the single chain CD19-CAR positive control” and the IL-2 production [1, 2] was “equivalent, or superior, to the single chain CD19-CAR positive control”. The “elimination of CD19 expressing K562 cells” value (K562-CD19 cells; T cells with DARIC signaling component FRB (2021-2113) T2098L, T:K562 5:1, rapamycin 10 nM or AP21967 100 nM) was “elimination of the CD19 expressing K562 cells” and the “elimination of K562-CD19 cells” value (K562-CD19 cells; T cells with DARIC signaling component FRB dimerization domain, T:K562 5:1, rapamycin 10 nM or AP21967 100 nM) was “no effect on cell survival”.

With `C=CC[C@@H]1/C=C(\C)C[C@H](C)C[C@H](OC)[C@H]2O[C@@](O)(C(=O)C(=O)N3CCCC[C@H]3C(=O)O[C@H](/C(C)=C/[C@@H]3CC[C@@H](O)[C@H](OC)C3)[C@H](C)[C@@H](O)CC1=O)[C@H](C)C[C@@H]2OC` [FK506] the “change in antigen specific cytotoxicity on addition of anti-bridging factor” value (K562-CD19 cells; CD19 targeting CAR T cells) was “minimal reduction” and the “change in antigen specific cytotoxicity on addition of anti-bridging factor” value (K562-CD19 cells; CD19 targeting DARIC T cells with rapamycin) was “marked reduction”.

For `CO[C@H]1C[C@@H]2CC[C@@H](C)[C@@](O)(O2)C(=O)C(=O)N2CCCC[C@H]2C(=O)O[C@H]([C@H](C)C[C@@H]2CC[C@@H](OCCO)[C@H](OC)C2)CC(=O)[C@H](C)/C=C(\C)[C@@H](O)[C@@H](OC)C(=O)[C@H](C)C[C@H](C)/C=C/C=C/C=C/1C` [everolimus], the “cytotoxicity responses on titration of bridging factor” value (K562-CD19 cells; T:K562 5:1) was “maintained to sub-nanomolar drug concentrations”.

In the case of `CO[C@H]1C[C@@H]2CC[C@@H](C)[C@@](O)(O2)C(=O)C(=O)N2CCCC[C@H]2C(=O)O[C@H]([C@H](C)C[C@@H]2CC[C@@H](O)[C@H](OC)C2)CC(=O)[C@H](C)/C=C(\C)[C@@H](O)[C@@H](OC)C(=O)[C@H](C)C[C@H](C)/C=C/C=C/C=C/1C` [rapamycin], the “cytotoxicity responses on titration of bridging factor” value (K562-CD19 cells; T:K562 5:1) is reported as “maintained to sub-nanomolar drug concentrations”, the cytotoxicity response (K562-CD19 cells; mixed T cell populations, one expressing DARIC antigen binding component, the other DARIC signaling component) is reported as “cytotoxicity response against K562-CD19 cells” and the antigen specific cytotoxicity (K562-CD19 cells; swapped DARIC: binding component DmrC, signaling component DmrA (SEQ ID NOs.:12, 31), samples containing rapamycin) is reported as “Antigen specific cytotoxicity was observed”.

With “SS-DmrC-CD8TM-41BB-CD3z-P2A-SS-CD123scFv-DmrA-CD4TM protein [CD123 DARIC]” the cytotoxicity (K562-CD123 target cells) was “Cytotoxicity was observed”.

In the case of “SS-FRB(T2098L)-TM-41BB-CD3z mRNA [DARIC signaling component]”, the specific cytotoxicity (K562-CD19 target cells; primary human T cells electroporated with IVT-mRNA, 50:50 K562-CD19/K562-CD20, 3:1 or 10:1 T cell to target cell ratio) is reported as “no significant cytotoxicity”.

In the case of “both DARIC components: T cells expressing both DARIC binding and signaling components”, the specific cytotoxicity (K562-CD19 target cells; T cells expressing both DARIC components, without addition of AP21967) is reported as “no significant cytotoxicity” and the cytokine production ([1]; T cells expressing DARIC components, absence of bridging factor AP21967) is reported as “no significant cytokine production”.

From patent US11530265B2, “Multipartite signaling proteins and uses thereof” (2seventy bio, Inc., priority 2013, dated 2022)
